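Cells were grown in 96-well plates and exposed to each compound for 48 hours at five concentrations; endpoints were interpolated linearly between bracketing concentrations, or set to the highest concentration if not reached. Abbreviation: GI50, concentration required for 50% inhibition of growth. TGI marks complete inhibition of growth.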
Legend:
Assay in all cases: NCI-60 cell line screen, 48 h
[1] = test system: NCI-H460 lung
[2] = test system: NCI-H522 lung
[3] = test system: NCI/ADR-RES ovarian
[4] = test system: OVCAR-3 ovarian
[5] = test system: OVCAR-4 ovarian
[6] = test system: OVCAR-5 ovarian
[7] = test system: OVCAR-8 ovarian
[8] = test system: PC-3 prostate
[9] = test system: RPMI-8226 leukemia
[10] = test system: RXF 393 renal
[11] = test system: SF-268 CNS
[12] = test system: SF-295 CNS
[13] = test system: SF-539 CNS
[14] = test system: SK-MEL-2 melanoma
[15] = test system: SK-MEL-28 melanoma
[16] = test system: SK-MEL-5 melanoma
[17] = test system: SK-OV-3 ovarian
[18] = test system: SN12C renal
[19] = test system: SNB-19 CNS
[20] = test system: SNB-75 CNS
[21] = test system: SR leukemia
[22] = test system: SW-620 colon
[23] = test system: T-47D breast
[24] = test system: TK-10 renal
[25] = test system: U251 CNS
[26] = test system: UACC-257 melanoma
[27] = test system: UACC-62 melanoma
[28] = test system: UO-31 renal

Question: Which GI50 [1] does the source give for `Cc1ncsc1-c1ccc(CNC(=O)[C@@H]2C[C@@H](O)CN2C(=O)[C@@H](NC(=O)C2(C#N)CC2)C(C)(C)C)cc1` here?
Answer: > 100 µM

Question: What about the TGI [1] of the same compound?
Answer: > 100 µM

Question: And the GI50 [2]?
Answer: > 100 µM

Question: And the TGI [2]?
Answer: > 100 µM

Question: And the GI50 [3]?
Answer: > 100 µM

Question: What about the TGI [3] of the same compound?
Answer: > 100 µM

Question: What about the GI50 [4] of the same compound?
Answer: > 100 µM

Question: What about the TGI [4] of the same compound?
Answer: > 100 µM

Question: What about the GI50 [5] of the same compound?
Answer: 80.7 µM

Question: What about the TGI [5] of the same compound?
Answer: > 100 µM

Question: What about the GI50 [6] of the same compound?
Answer: > 100 µM

Question: And the TGI [6]?
Answer: > 100 µM

Question: What about the GI50 [7] of the same compound?
Answer: > 100 µM

Question: And the TGI [7]?
Answer: > 100 µM

Question: And the GI50 [8]?
Answer: > 100 µM

Question: And the TGI [8]?
Answer: > 100 µM

Question: What about the GI50 [9] of the same compound?
Answer: 62.4 µM

Question: What about the TGI [9] of the same compound?
Answer: > 100 µM

Question: What about the GI50 [10] of the same compound?
Answer: > 100 µM

Question: And the TGI [10]?
Answer: > 100 µM

Question: And the GI50 [11]?
Answer: > 100 µM

Question: And the TGI [11]?
Answer: > 100 µM

Question: What about the GI50 [12] of the same compound?
Answer: > 100 µM

Question: And the TGI [12]?
Answer: > 100 µM

Question: What about the GI50 [13] of the same compound?
Answer: > 100 µM

Question: What about the TGI [13] of the same compound?
Answer: > 100 µM

Question: What about the GI50 [14] of the same compound?
Answer: > 100 µM

Question: What about the TGI [14] of the same compound?
Answer: > 100 µM

Question: What about the GI50 [15] of the same compound?
Answer: > 100 µM

Question: What about the TGI [15] of the same compound?
Answer: > 100 µM

Question: And the GI50 [16]?
Answer: > 100 µM

Question: What about the TGI [16] of the same compound?
Answer: > 100 µM

Question: And the GI50 [17]?
Answer: > 100 µM

Question: What about the TGI [17] of the same compound?
Answer: > 100 µM

Question: What about the GI50 [18] of the same compound?
Answer: > 100 µM

Question: What about the TGI [18] of the same compound?
Answer: > 100 µM

Question: And the GI50 [19]?
Answer: > 100 µM

Question: And the TGI [19]?
Answer: > 100 µM

Question: And the GI50 [20]?
Answer: 33.7 µM

Question: What about the TGI [20] of the same compound?
Answer: > 100 µM

Question: And the GI50 [21]?
Answer: 55.4 µM

Question: And the TGI [21]?
Answer: > 100 µM

Question: What about the GI50 [22] of the same compound?
Answer: > 100 µM

Question: What about the TGI [22] of the same compound?
Answer: > 100 µM

Question: And the GI50 [23]?
Answer: > 100 µM

Question: What about the TGI [23] of the same compound?
Answer: > 100 µM

Question: And the GI50 [24]?
Answer: > 100 µM

Question: What about the TGI [24] of the same compound?
Answer: > 100 µM

Question: What about the GI50 [25] of the same compound?
Answer: > 100 µM

Question: And the TGI [25]?
Answer: > 100 µM

Question: What about the GI50 [26] of the same compound?
Answer: > 100 µM

Question: And the TGI [26]?
Answer: > 100 µM

Question: What about the GI50 [27] of the same compound?
Answer: 62.6 µM

Question: What about the TGI [27] of the same compound?
Answer: > 100 µM

Question: What about the GI50 [28] of the same compound?
Answer: > 100 µM

Question: And the TGI [28]?
Answer: > 100 µM

Reference: PubChem BioAssay (NCI)
